Test results published in patent US20060069095A1, “Azole derivatives” (priority 2004, published 2006).

Key:
[1] = system: A549 cells; assay: MTT assay in A549 cells; assay type: cell-based, human; settings: 5 days incubation, 3 μM to 0.15 nM
Protocol: To further show the activity of the compounds according to this invention, their effects on a […] was evaluated using a standard MTT-assay. MTT (3-(4,5-dimethylthiazol-2-yl)-2,5-diphenyl tetrazolium bromide) is widely used for the quantitative determination of cytotoxic effects or in vitro chemosensitivity of tumor cells. The assay is based on the cleavage of the yellow tetrazolium salt (MTT) to purple formazan crystals by metabolic active cells. For details, see Rubinstein, L. V., et al., J. Natl. Cancer Inst. 82 (1990) 1113-1118.
A549 cells (human lung carcinoma cell line ATTC-No. CCL-185) were cultivated in RPMI (Roswell Park Memorial Institute) 1640 medium with GlutaMAX™ I (Invitrogen, Cat-No. 61870-010), 2,5% Fetal Calf Serum (FCS, Sigma Cat-No. F4135 (FBS)); 100 Units/ml penicillin/100 μg/ml streptomycin (=Pen/Strep from Invitrogen Cat. No. 15140). For the assay the cells were seeded in 384 well plates, 900 cells per well, in the same medium. The next day compounds (dissolved 10 mM in dimethylsulfoxide (DMSO)) were added in various concentrations ranging from 3 μM to 0.15 nM (10 concentrations, 1:3 diluted). After 5 days MTT assay was done mainly according to the instructions of the manufacturer (Cell proliferation kit I, MTT, from Roche Molecular Biochemicals). In brief: MTT labeling reagent (3-(4,5-dimethylthiazol-2-yl)-2,5-diphenyltetrazolium bromide (MTT)) was added to a final concentration of 0.5 mg/ml, added and incubated for 4 hrs at 37° C., 5% CO2. During this incubation time purple formazan crystals are formed. After addition of the solubilization solution (20% Sodium Dodecyl Sulfate (SDS) in 0.02 M HCl) the plates were incubated overnight at 37° C., 5% CO2. After careful mixing plates were measured in Victor 2 scanning multiwell spectrophotometer (Wallac) at 550 nm.
A decrease in number of living cells results in a decrease in the total metabolic activity in the sample. The decrease directly correlates to the amount of purple color resulting from the solubilization of the purple formazan crystals.
• A549: 900 cells in 60 μl per well of 384 well plate (Greiner) • Medium: RPMI 1640, 2.5% FCS, glutamine, Pen/Strep. • Incubate 1 day at 37° C.
Induction: • Dilution of compound in DMSO: 3 μl 10 mM+27 μl DMSO, dilute 1:3 • Add 2 μl of compound dilution row to 95 μl of medium • Add 10 μl of compound dilution to 60 μl medium in test plate resulting in 0.3% DMSO per well • Incubate 120 h (5 days) at 37° C., 5% CO2
Analysis: • Add 7 μl MTT (5 mg/7 ml/well), incubate 4 h at 37° C. • Add 30 μl lysis buffer (20% SDS, 0.04 N HCl) per well • Incubate overnight at 37° C.
Measurement: • Victor 2 scanning multiwell spectrophotometer (Wallac) at 550 nm
Determination of IC50 was done using XL-fit (XLfit software (ID Business Solution Ltd., Guilford, Surrey, UK)).

[2] = system: A549-Cell-Xenograft; assay: In vivo assay on tumor inhibition (A549 xenograft); parameters: species or system mice; settings: daily dosage of 80 mg/kg, oral, after 23 days of treatment (44 days of experiment), median tumor volume
Protocol: In vivo Assay on Tumor Inhibition:
To generate primary tumors, Non-Small-Cell Lung Cancer (NSCLC) (e.g. Calu-3 (ATTC HTB-55) or A549 (ATTC CCL-185)) cells (4-5.0×10^6 in a volume of 100 μl) are injected subcutaneously into the left flank of female SCID beige (Severe Combined Immunodeficient/beige mice available from Charles River, Sulzfeld, Germany) or BALB/c nude (BALB/c Nude Spontaneous Mutant Mice (homozygotes) available from Taconic Europe, Ry, Denmark) mice. The cells are thawed and expanded in vitro before use in the experiment. Mice are assigned to the treatment groups 14-21 days after cell injection. […] The subcutaneous primary tumors are measured twice weekly, starting prior to randomisation, in two dimensions (length and width) using an electronic caliper. The volume of the primary tumor is calculated using the formula: V[mm^3]=(length [mm]×width [mm]×width [mm])/2. In addition, the body weight of all animals is recorded at least twice weekly. […]
In one example of the above procedure, treatment was started on or about the 20th-21st day of the experiment (after cell injection) and the treatment was carried out for 23 days (about 44 days of experiment). In this example, primary tumor volume was calculated according to NCI protocol (TW=½ ab^2, where a and b were long and short diameters of tumor mass in mm). […] Tumor weight was determined by analytic scale at termination (day 44/45). […]

For `Cn1nncc1CCCCc1ccc(OCc2coc(/C=C/c3ccc(OC(F)(F)F)cc3)n2)cc1` [Example 1.2, Methyl-5-[4-(4-{2-[(E)-2-(4-trifluoromethoxy-phenyl)-vinyl]-oxazol-4-ylmethoxy}-phenyl)-butyl]-1H-[1,2,3]triazole], the IC50 [1] was 7 nM and the “Tumor Growth Inhibition (TGI)” value [2] was 50%.
In the case of `Cc1cc(OCc2coc(/C=C/c3ccc(OC(F)(F)F)cc3)n2)ccc1CCCCc1cnn(C)n1` [Example 3.2, 2-Methyl-4-[4-(2-methyl-4-{2-[(E)-2-(4-trifluoromethoxy-phenyl)-vinyl]-oxazol-4-ylmethoxy}-phenyl)-butyl]-2H-[1,2,3]triazole], the “Tumor Growth Inhibition (TGI)” value [2] is reported as 72%.
